From ChEMBL document CHEMBL1142097, “EthA, a common activator of thiocarbamide-containing drugs acting on different mycobacterial targets” (Antimicrob Agents Chemother, 2007)
Calls of active or inactive are those of the source. The calls are words filed in the database; no cut-off is given here.

Test system: Mycobacterium tuberculosis
Test: Antimycobacterial activity against Mycobacterium tuberculosis H37Rv
Format: functional, organism-based

For `COc1ccc(/C(C)=N/NC(N)=S)cc1`, the Activity was “Active”.
